Data taken from ChEMBL document CHEMBL3865786, “Scaffold-hopping of bioactive flavonoids: Discovery of aryl-pyridopyrimidinones as potent anticancer agents that inhibit catalytic role of topoisomerase IIα” (Eur J Med Chem, 2016).
Active and inactive are the calls of the source. No cut-off for these calls is given here.

Legend:
[1] = target: DNA topoisomerase 2-alpha (Homo sapiens) (UniProt P11388); assay: Inhibition of human DNA topoisomerase 2alpha-mediated decatenation of kinetoplast DNA at 100 uM after 30 mins by agarose gel electrophoresis
Chain of DNA topoisomerase 2-alpha (Homo sapiens) (P11388 whole entry): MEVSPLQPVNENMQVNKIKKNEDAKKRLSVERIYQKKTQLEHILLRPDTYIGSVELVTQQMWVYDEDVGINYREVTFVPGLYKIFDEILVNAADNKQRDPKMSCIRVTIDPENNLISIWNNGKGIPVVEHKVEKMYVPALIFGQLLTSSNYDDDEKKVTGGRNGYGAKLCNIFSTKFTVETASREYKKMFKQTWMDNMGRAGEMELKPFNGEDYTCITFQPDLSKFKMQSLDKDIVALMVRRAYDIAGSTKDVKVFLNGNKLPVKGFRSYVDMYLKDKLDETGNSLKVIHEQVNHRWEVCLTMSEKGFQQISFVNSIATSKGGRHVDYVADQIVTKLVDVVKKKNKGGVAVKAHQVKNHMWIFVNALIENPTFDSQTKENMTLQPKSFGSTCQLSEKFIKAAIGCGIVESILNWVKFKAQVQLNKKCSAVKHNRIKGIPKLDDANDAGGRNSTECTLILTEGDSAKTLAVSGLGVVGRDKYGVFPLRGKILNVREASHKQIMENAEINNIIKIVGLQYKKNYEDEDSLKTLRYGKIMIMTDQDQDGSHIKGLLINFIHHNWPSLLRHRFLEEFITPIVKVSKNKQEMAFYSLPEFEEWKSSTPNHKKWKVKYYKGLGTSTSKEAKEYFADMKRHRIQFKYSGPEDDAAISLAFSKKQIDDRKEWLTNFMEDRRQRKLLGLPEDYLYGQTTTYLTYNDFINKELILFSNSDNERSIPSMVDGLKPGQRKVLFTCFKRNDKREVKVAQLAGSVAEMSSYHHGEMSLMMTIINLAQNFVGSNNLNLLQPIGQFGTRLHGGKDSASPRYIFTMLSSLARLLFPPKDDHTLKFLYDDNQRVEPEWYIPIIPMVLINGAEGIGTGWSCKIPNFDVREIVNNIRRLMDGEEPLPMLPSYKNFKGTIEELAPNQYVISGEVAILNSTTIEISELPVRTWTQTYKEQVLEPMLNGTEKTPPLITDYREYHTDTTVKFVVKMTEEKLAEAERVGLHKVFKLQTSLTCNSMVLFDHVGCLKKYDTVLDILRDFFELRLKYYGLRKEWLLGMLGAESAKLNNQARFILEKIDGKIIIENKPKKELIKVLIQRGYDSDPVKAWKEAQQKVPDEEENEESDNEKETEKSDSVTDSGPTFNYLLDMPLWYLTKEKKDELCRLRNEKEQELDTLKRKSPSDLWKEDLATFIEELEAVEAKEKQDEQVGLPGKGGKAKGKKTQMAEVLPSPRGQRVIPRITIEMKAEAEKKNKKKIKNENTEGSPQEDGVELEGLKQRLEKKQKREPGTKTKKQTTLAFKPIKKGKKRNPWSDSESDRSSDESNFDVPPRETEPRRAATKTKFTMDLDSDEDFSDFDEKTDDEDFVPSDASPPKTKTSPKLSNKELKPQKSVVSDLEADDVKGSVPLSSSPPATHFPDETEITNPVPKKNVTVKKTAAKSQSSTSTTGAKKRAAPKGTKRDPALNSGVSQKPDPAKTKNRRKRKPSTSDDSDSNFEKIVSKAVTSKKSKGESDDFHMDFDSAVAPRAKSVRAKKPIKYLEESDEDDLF

[2] = (§1) Cytotoxicity against HEK293 cells assessed as reduction in cell viability after 48 hrs by MTT assay; assay type: functional; conditions: Homo sapiens, HEK293, 48 h; read-out: LC50 (the source's name)
[3] = Cytotoxicity against African green monkey Vero cells assessed as reduction in cell viability after 48 hrs by MTT assay; assay type: toxicity, cell-based; conditions: chlorocebus sabaeus; for CC50 at 48 h: Vero cells, read-out: LC50; for Activity: vero, 48 h
Bos taurus = organism: Bos taurus; assay: Binding affinity to calf thymus DNA assessed as DNA intercalation by measuring conformational changes at 100 uM after 2 hrs by CD spectroscopic analysis
HEK293 [4] = assay: as §1; assay type: functional; conditions: Homo sapiens
[5] = Cytotoxicity against human MCF7 cells assessed as reduction in cell viability after 48 hrs by MTT assay; assay type: functional, cell-based; conditions: MCF7, 48 h
[6] = Cytotoxicity against human HeLa cells assessed as reduction in cell viability after 48 hrs by MTT assay; assay type: functional, cell-based
[7] = Cytotoxicity against human A549 cells assessed as reduction in cell viability after 48 hrs by MTT assay; assay type: functional, cell-based; conditions: A549, 48 h
[8] = Cytotoxicity against human HCT116 cells assessed as reduction in cell viability after 48 hrs by MTT assay; assay type: functional, cell-based; conditions: HCT-116, 48 h
[9] = Cytotoxicity against human H357 cells assessed as reduction in cell viability after 48 hrs by MTT assay; assay type: functional, cell-based; conditions: H357, 48 h
[10] = (§2) Anticlonogenic activity against HEK293 cells assessed as inhibition of colony formation incubated for 48 hrs measured after 6 days by crystal violet staining based assay; assay type: functional; conditions: Homo sapiens, read-out: LC50 (the source's name)
HEK293 [11] = assay: as §2; assay type: functional; conditions: Homo sapiens
HEK293 [12] = assay: Potency index, ratio of etoposide LC50 to compound LC50 for anticlonogenic activity in HEK293 cells; assay type: functional, Homo sapiens
[13] = Binding affinity to DNA (unknown origin) assessed as hypochromism after 1 hr by UV-Vis absorption spectrophotometric analysis

Row | SMILES | Topoisomerase 2-alpha inhibition (active/inactive) [1] | CC50 [2] | CC50 at 48 h [3] | CC50 [10] | also measured
1 | O=c1cc(-c2ccc3c(c2)OCO3)oc2ccccc12 | Active | 8 µM | 48 µM | – | –
2 | CC[n+]1c(-c2ccccc2)c2cc(N)ccc2c2ccc(N)cc21 | – | – | – | – | Activity (Bos taurus): Active
3 | Cc1ccc(-c2cnc3ccccn3c2=O)cc1 | Active | 3.5 µM | 44 µM | 2.5 µM | Activity (HEK293 [4]): Dose-dependent effect; Activity [3]: Dose-dependent effect; IC50 [5]: 4 µM; IC50 [6]: 3 µM; IC50 [7]: 2.5 µM; IC50 [8]: 2.5 µM; IC50 [9]: 2.8 µM; inhibition (HEK293 [11]): Dose-dependent effect; RatioLC50 (HEK293 [12]): 5 - 10
4 | O=c1cc(-c2ccc3c(c2)OCO3)nc2ccccn12 | Active | 15.5 µM | 52 µM | – | –
5 | COc1ccc(-c2cc(=O)n3ccccc3n2)cc1 | Active | 8 µM | 60 µM | – | –
6 | O=Cc1ccc(-c2cc(=O)n3ccccc3n2)cc1 | Active | 3 µM | 48 µM | 2.5 µM | Activity (HEK293 [4]): Dose-dependent effect; Activity [3]: Dose-dependent effect; IC50 [5]: 2.5 µM; IC50 [6]: 3 µM; IC50 [7]: 2.4 µM; IC50 [8]: 3.5 µM; IC50 [9]: 2.5 µM; inhibition (HEK293 [11]): Dose-dependent effect; RatioLC50 (HEK293 [12]): 5 - 10; Activity [13]: Active
7 | Cc1ccc(-c2coc3ccccc3c2=O)cc1 | Active | 8 µM | 48 µM | – | –
8 | O=c1c(-c2cccc3ccccc23)cnc2ccccn12 | Active | 7 µM | 60 µM | – | –
9 | COc1ccc(-c2coc3ccccc3c2=O)cc1 | – | 12 µM | 52 µM | – | –
10 | O=c1c(-c2ccc3c(c2)OCO3)cnc2ccccn12 | Active | 15 µM | 48 µM | – | –
11 | O=c1c(-c2ccccc2)cnc2c(OCc3ccccc3)cccn12 | Active | 3 µM | 60 µM | 3.8 µM | Activity (HEK293 [4]): Dose-dependent effect; Activity [3]: Dose-dependent effect; IC50 [5]: 2 µM; IC50 [6]: 1.5 µM; IC50 [7]: 2 µM; IC50 [8]: 3 µM; IC50 [9]: 3 µM; inhibition (HEK293 [11]): Dose-dependent effect; RatioLC50 (HEK293 [12]): 5 - 10
12 | COc1cc([C@@H]2c3cc4c(cc3[C@@H](O[C@@H]3O[C@@H]5CO[C@@H](C)O[C@H]5[C@H](O)[C@H]3O)[C@H]3COC(=O)[C@H]23)OCO4)cc(OC)c1O [ETOPOSIDE] | Active | 22 µM | 55 µM | 20 µM | –
13 | O=c1c(-c2ccc(O)c(O)c2)cnc2ccccn12 | Active | 9 µM | 38 µM | – | –
